Experimental data published in PubChem BioAssay AID248 (DTP/NCI, 2004).
“And” between values parts separate entries of the source, which are not always exact repeats. Equal values may be shown once. Toxic doses and inconclusive results are not listed. Rule as the data show it: active = T/C of 150% or more; inactive = T/C below 125%.

Test system: L1210 leukemia ip in BDF1 mice, survival T/C
Test: NCI In Vivo Anticancer Drug Screen. Data for tumor model L1210 Leukemia (intraperitoneal) in B6D2F1 (BDF1) mice
Conditions: endpoint: mean survival time, higher = longer survival
Method in brief: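 Tumor cells were implanted, animals were treated, and survival was followed. The result divides the treated measurement by the vehicle-control measurement.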

[1] = dose: 100.0 mg/kg/injection, schedule: Q01DX001 (ip), vehicle: saline
[2] = dose: 100.0 mg/kg/injection, schedule: Q01DX009 (ip), vehicle: saline
[3] = dose: 200.0 mg/kg/injection, schedule: Q01DX001 (ip), vehicle: saline
[4] = dose: 200.0 mg/kg/injection, schedule: Q01DX009 (ip), vehicle: saline
[5] = dose: 400.0 mg/kg/injection, schedule: Q01DX001 (ip), vehicle: saline
[6] = dose: 400.0 mg/kg/injection, schedule: Q01DX009 (ip), vehicle: saline
[7] = dose: 100.0 mg/kg/injection, schedule: Q04DX003 (ip), vehicle: Klucel (hydroxypropylcellulose) (HPC)
[8] = dose: 200.0 mg/kg/injection, schedule: Q04DX003 (ip), vehicle: Klucel (hydroxypropylcellulose) (HPC)
[9] = dose: 400.0 mg/kg/injection, schedule: Q04DX003 (ip), vehicle: Klucel (hydroxypropylcellulose) (HPC)
[10] = dose: 100.0 mg/kg/injection, schedule: Q01DX001 (ip), vehicle: carboxymethylcellulose (CMC)
[11] = dose: 200.0 mg/kg/injection, schedule: Q01DX001 (ip), vehicle: carboxymethylcellulose (CMC)
[12] = dose: 400.0 mg/kg/injection, schedule: Q01DX001 (ip), vehicle: carboxymethylcellulose (CMC)
[13] = dose: 100.0 mg/kg/injection, schedule: Q04DX002 (ip), vehicle: Klucel (hydroxypropylcellulose) (HPC)
[14] = dose: 200.0 mg/kg/injection, schedule: Q04DX002 (ip), vehicle: Klucel (hydroxypropylcellulose) (HPC)
[15] = dose: 400.0 mg/kg/injection, schedule: Q04DX002 (ip), vehicle: Klucel (hydroxypropylcellulose) (HPC)
[16] = dose: 50.0 mg/kg/injection, schedule: Q01DX009 (ip), vehicle: saline with Tween-80
[17] = dose: 100.0 mg/kg/injection, schedule: Q01DX009 (ip), vehicle: saline with Tween-80
[18] = dose: 200.0 mg/kg/injection, schedule: Q01DX009 (ip), vehicle: saline with Tween-80
[19] = dose: 100.0 mg/kg/injection, schedule: Q04DX003 (ip), vehicle: acetone
[20] = dose: 200.0 mg/kg/injection, schedule: Q04DX003 (ip), vehicle: acetone

Measured: T/C

Cc1nc(C(=O)O)c(=O)[nH]c1C
inactive: dose: 50.0 mg/kg/injection, schedule: Q01DX009 (ip), vehicle: water 103 % of control | dose: 100.0 mg/kg/injection, schedule: Q01DX009 (ip), vehicle: water 103 % of control | dose: 100.0 mg/kg/injection, schedule: Q04DX003 (ip), vehicle: water 102 % of control | dose: 200.0 mg/kg/injection, schedule: Q01DX009 (ip), vehicle: water 101 % of control | dose: 200.0 mg/kg/injection, schedule: Q04DX003 (ip), vehicle: water 101 % of control

CCCC(=O)NO
inactive: [1] 97 % of control | [2] 102 % of control | dose: 100.0 mg/kg/injection, schedule: Q04DX003 (ip), vehicle: saline 109 % of control and 105 % of control | [3] 114 % of control | [4] 104 % of control | dose: 200.0 mg/kg/injection, schedule: Q04DX003 (ip), vehicle: saline 111 % of control and 96 % of control | [5] 108 % of control | [6] 114 % of control | dose: 400.0 mg/kg/injection, schedule: Q04DX003 (ip), vehicle: saline 112 % of control and 100 % of control

O=C(Nc1ccc(Cl)c(Cl)c1)OC1C=CS(=O)(=O)C1 (stereo not drawn)
inactive: [7] 104 % of control | [8] 104 % of control | [9] 96 % of control

COc1ccc(C(=O)Nc2cc(Cl)ccc2OC)cc1
inactive: dose: 100.0 mg/kg/injection, schedule: Q01DX001 (ip), vehicle: other 101 % of control | dose: 100.0 mg/kg/injection, schedule: Q01DX009 (ip), vehicle: other 98 % of control and 102 % of control | dose: 100.0 mg/kg/injection, schedule: Q04DX002 (ip), vehicle: carboxymethylcellulose (CMC) 93 % of control and 103 % of control | dose: 100.0 mg/kg/injection, schedule: Q04DX003 (ip), vehicle: other 97 % of control | dose: 200.0 mg/kg/injection, schedule: Q01DX001 (ip), vehicle: other 93 % of control | dose: 200.0 mg/kg/injection, schedule: Q01DX009 (ip), vehicle: other 100 % of control and 109 % of control | dose: 200.0 mg/kg/injection, schedule: Q04DX002 (ip), vehicle: carboxymethylcellulose (CMC) 96 % of control and 116 % of control | dose: 200.0 mg/kg/injection, schedule: Q04DX003 (ip), vehicle: other 106 % of control | dose: 400.0 mg/kg/injection, schedule: Q01DX001 (ip), vehicle: other 97 % of control | dose: 400.0 mg/kg/injection, schedule: Q01DX009 (ip), vehicle: other 94 % of control and 88 % of control | dose: 400.0 mg/kg/injection, schedule: Q04DX002 (ip), vehicle: carboxymethylcellulose (CMC) 103 % of control and 104 % of control | dose: 400.0 mg/kg/injection, schedule: Q04DX003 (ip), vehicle: other 105 % of control

CCOC(=O)/C=C(\C)Nc1ncc(Br)cc1Br
inactive: dose: 100.0 mg/kg/injection, schedule: Q01DX001 (ip), vehicle: saline with Tween-80 92 % of control | dose: 200.0 mg/kg/injection, schedule: Q01DX001 (ip), vehicle: saline with Tween-80 96 % of control | dose: 400.0 mg/kg/injection, schedule: Q01DX001 (ip), vehicle: saline with Tween-80 89 % of control

CC(=O)OC1c2cc(Cl)ccc2-c2c(Cl)cc(Cl)cc21 (stereo not drawn)
inactive: [10] 95 % of control | [11] 95 % of control | [12] 95 % of control

Cc1ccc2c3c1C(O)C(C(N)=O)C3CCS2 (stereo not drawn)
inactive: [3] 89 % of control | [5] 106 % of control

COC(OC)c1[nH]c(=S)[nH]c(=O)c1Cc1ccc(Br)cc1
inactive: [13] 97 % of control | [14] 94 % of control | [15] 105 % of control

Oc1ccc(F)c2cccnc12
inactive: dose: 50.0 mg/kg/injection, schedule: Q01DX001 (ip), vehicle: carboxymethylcellulose (CMC) 101 % of control

C[N+](C)(C)Cc1ccc([N+](=O)[O-])cc1
inactive: dose: 2.2 mg/kg/injection, schedule: Q01DX001 (ip), vehicle: saline 101 % of control | dose: 3.3 mg/kg/injection, schedule: Q01DX001 (ip), vehicle: saline 97 % of control | dose: 5.0 mg/kg/injection, schedule: Q01DX001 (ip), vehicle: saline 94 % of control | dose: 7.5 mg/kg/injection, schedule: Q01DX001 (ip), vehicle: saline 101 % of control

COC(=O)c1ccc(OC(=O)Nc2ccc(C)c(NC(=O)Oc3ccc(C(=O)OC)cc3)c2)cc1
inactive: [16] 96 % of control | [17] 96 % of control | [18] 101 % of control

CC(=O)OC1CCC2(C)C(C)CC3C(=O)OC32C1 (stereo not drawn)
inactive: [19] 87 % of control | [20] 90 % of control

O=c1cc(C(F)(F)F)[nH]c2ccccc12
inactive: dose: 25.0 mg/kg/injection, schedule: Q04DX002 (ip), vehicle: Klucel (hydroxypropylcellulose) (HPC) 106 % of control | dose: 50.0 mg/kg/injection, schedule: Q04DX002 (ip), vehicle: Klucel (hydroxypropylcellulose) (HPC) 98 % of control

O=C(NCCCCCCNC(=O)Nc1ccc(C2=NCCN2)cc1)Nc1ccc(C2=NCCN2)cc1
inactive: dose: 62.0 mg/kg/injection, schedule: Q01DX Z (ip), vehicle: carboxymethylcellulose (CMC) 106 % of control | dose: 125.0 mg/kg/injection, schedule: Q01DX Z (ip), vehicle: carboxymethylcellulose (CMC) 92 % of control | dose: 250.0 mg/kg/injection, schedule: Q01DX Z (ip), vehicle: carboxymethylcellulose (CMC) 109 % of control | dose: 500.0 mg/kg/injection, schedule: Q01DX Z (ip), vehicle: carboxymethylcellulose (CMC) 102 % of control

CC(=O)OC(C)C(=O)C1=C2CCCN2CCc2cc3c(cc21)OCO3 (stereo not drawn)
inactive: [13] 103 % of control | [14] 103 % of control | [15] 103 % of control

CCCCC(=O)N/N=C/c1ccccc1OC
inactive: [1] 102 % of control | [3] 104 % of control

CN(C)CCCC(=O)O
inactive: [2] 89 % of control | dose: 100.0 mg/kg/injection, schedule: Q04DX003 (ip), vehicle: saline with Tween-80 106 % of control | [4] 97 % of control | dose: 200.0 mg/kg/injection, schedule: Q04DX003 (ip), vehicle: saline with Tween-80 95 % of control | [6] 95 % of control | dose: 400.0 mg/kg/injection, schedule: Q04DX003 (ip), vehicle: saline with Tween-80 88 % of control

CSCc1cccc(CO)c1
inactive: dose: 100.0 mg/kg/injection, schedule: Q01DX009 (ip), vehicle: acetone 101 % of control | [19] 98 % of control | dose: 200.0 mg/kg/injection, schedule: Q01DX009 (ip), vehicle: acetone 105 % of control | [20] 106 % of control | dose: 400.0 mg/kg/injection, schedule: Q01DX009 (ip), vehicle: acetone 97 % of control | dose: 400.0 mg/kg/injection, schedule: Q04DX003 (ip), vehicle: acetone 109 % of control

O=[N+]([O-])c1ccc(C(O)Nc2nccs2)o1 (stereo not drawn)
inactive: dose: 25.0 mg/kg/injection, schedule: Q01DX009 (ip), vehicle: saline with Tween-80 96 % of control | [16] 117 % of control

NCC1CCCO1 (stereo not drawn)
inactive: dose: 25.0 mg/kg/injection, schedule: Q01DX009 (ip), vehicle: saline 98 % of control | dose: 50.0 mg/kg/injection, schedule: Q01DX009 (ip), vehicle: saline 95 % of control | [2] 101 % of control

CCCC[Si](C)(C)C
inactive: [10] 103 % of control | [11] 95 % of control | [12] 103 % of control

C=CCNC(=O)Oc1cccc(NC(=O)CC)c1
inactive: [17] 94 % of control | [18] 91 % of control | dose: 400.0 mg/kg/injection, schedule: Q01DX009 (ip), vehicle: saline with Tween-80 87 % of control

O=C1C(Cl)=C(Cl)C2(Cl)C1(Cl)C1(Cl)C(=O)C(Cl)=C(Cl)C12Cl (stereo not drawn)
inactive: dose: 100.0 mg/kg/injection, schedule: Q01DX001 (ip), vehicle: Klucel (hydroxypropylcellulose) (HPC) 99 % of control | [7] 104 % of control | dose: 200.0 mg/kg/injection, schedule: Q01DX001 (ip), vehicle: Klucel (hydroxypropylcellulose) (HPC) 97 % of control | [8] 98 % of control | dose: 400.0 mg/kg/injection, schedule: Q01DX001 (ip), vehicle: Klucel (hydroxypropylcellulose) (HPC) 94 % of control | [9] 96 % of control

Cc1c(C#N)sc2ccccc12
inactive: [1] 96 % of control | [3] 96 % of control | [5] 96 % of control
